Tests used:
[1] = molecular target: Trace amine-associated receptor 1 (Rattus norvegicus, UniProt Q923Y9); test: (§1) Radioligand Binding Assay: HEK-293 cells stably expressing rat TAAR1 were maintained at 37 C and 5% CO2 in DMEM high glucose medium, containing fetal calf serum (10%, heat inactivated for 30 min at 56 C), penicillin/streptomycin (1%), and 375 ug/ml geneticin (Gibco). Cells were released from culture flasks using trypsin/ EDTA, harvested, washed twice with ice-cold PBS (without Ca2+ and Mg2+), pelleted at 1,000 rpm for 5 min at 4 C, frozen and stored at -80 C. Frozen pellets were suspended in 20 ml HEPES-NaOH (20 mM, pH 7.4) containing 10 mM EDTA and homogenized with a Polytron (PT 6000, Kinematica) at 14,000 rpm for 20 s. The homogenate was centrifuged at 48,000 x g for 30 min at 4 C. Subsequently, the supernatant was removed and discarded, and the pellet resuspended in 20 ml HEPES-NaOH (20 mM, pH 7.4) containing 0.1 mM EDTA using the Polytron (20 s at 14,000 rpm). This procedure was repeated and the final pellet resuspended in HEPES-NaOH containing 0.1 mM EDTA.; format: cell-based, HEK293
Sequence of Trace amine-associated receptor 1 (Rattus norvegicus, UniProt Q923Y9) (Q923Y9 whole entry): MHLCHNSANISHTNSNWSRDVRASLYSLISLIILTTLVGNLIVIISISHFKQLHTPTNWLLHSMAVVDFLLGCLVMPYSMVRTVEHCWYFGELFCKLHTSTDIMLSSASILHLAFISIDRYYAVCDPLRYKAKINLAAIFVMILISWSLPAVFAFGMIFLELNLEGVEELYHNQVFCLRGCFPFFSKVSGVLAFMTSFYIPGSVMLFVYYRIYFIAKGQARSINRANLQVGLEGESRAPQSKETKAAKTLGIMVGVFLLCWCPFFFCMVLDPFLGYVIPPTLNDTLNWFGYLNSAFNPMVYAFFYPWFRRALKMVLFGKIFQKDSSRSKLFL

[2] = molecular target: Trace amine-associated receptor 1 (Mus musculus, UniProt Q923Y8); test: as §1, with “Assay: Membrane Preparation and Radioligand Binding.” for “Assay:”, “mouse TAA 1” for “rat TAAR1”, “C02” for “CO2”, “rpm).” for “rpm). This procedure was repeated and the final pellet resuspended in HEPES-NaOH containing 0.1 mM EDTA.”; format: cell membranes, HEK293
Sequence of Trace amine-associated receptor 1 (Mus musculus, UniProt Q923Y8) (Q923Y8 whole entry): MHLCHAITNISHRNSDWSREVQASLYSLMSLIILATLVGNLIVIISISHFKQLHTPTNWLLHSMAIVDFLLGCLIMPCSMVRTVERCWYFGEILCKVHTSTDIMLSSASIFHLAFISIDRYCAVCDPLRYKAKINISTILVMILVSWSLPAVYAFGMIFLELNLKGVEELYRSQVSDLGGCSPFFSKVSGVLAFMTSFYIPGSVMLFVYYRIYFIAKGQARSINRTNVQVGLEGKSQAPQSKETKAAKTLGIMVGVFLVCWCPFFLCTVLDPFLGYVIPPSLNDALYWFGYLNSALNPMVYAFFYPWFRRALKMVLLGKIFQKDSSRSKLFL

SMILES | Ki [1] | Ki [2]
N#Cc1ccc(C(=O)Nc2ccc([C@@H]3CNCCO3)cc2Cl)cn1 | 410 nM | 25.9 nM
O=C(Nc1ccc([C@H]2CNCCO2)c(F)c1)c1cnn(-c2cnc(C(F)(F)F)cn2)c1 | 4 nM | 4.8 nM
CCOc1ccc(C#N)cc1NC(=O)Nc1ccc([C@@H]2CNCCO2)cc1F | 3.9 nM | 3.1 nM
N#Cc1cccc(C(=O)Nc2ccc([C@@H]3CNCCO3)cc2Cl)n1 | 184 nM | 82.4 nM
N#Cc1ccnc(C(=O)Nc2ccc([C@@H]3CNCCO3)cc2F)c1 | 32.5 nM | 5 nM
CCOc1ccc(C#N)cc1NC(=O)Nc1ccc([C@H]2CNCCO2)cc1F | 1.9 nM | 1.8 nM
COc1ccc(C#N)cc1NC(=O)Nc1ccc([C@@H]2CNCCO2)cc1F | 5.9 nM | 4.4 nM
O=C(Nc1ccc([C@H]2CNCCO2)c(F)c1)c1cnn(-c2ccnc(C(F)(F)F)n2)c1 | 3.6 nM | 8 nM
N#Cc1cccc(CNC(=O)Nc2ccc([C@H]3CNCCO3)cc2F)c1 | 67.9 nM | 3.1 nM
N#Cc1ccc(C(=O)Nc2ccc([C@H]3CNCCO3)cc2Cl)cn1 | 524 nM | 17 nM
N#Cc1ccc(C(=O)Nc2ccc([C@@H]3CNCCO3)cc2Cl)nc1 | 20.2 nM | 12 nM
N#Cc1cccc(C(=O)Nc2ccc([C@H]3CNCCO3)cc2Cl)n1 | 565 nM | 27.6 nM
N#Cc1cc(Cl)cc(C(=O)Nc2ccc([C@H]3CNCCO3)cc2F)n1 | 93.8 nM | 6.3 nM
N#Cc1cccc(C(=O)Nc2ccc([C@H]3CNCCO3)cc2F)n1 | 959 nM | 9.7 nM
N#Cc1ccc(C(=O)Nc2ccc([C@H]3CNCCO3)cc2Cl)nc1 | 154 nM | 6.3 nM
O=C(Nc1ccc([C@H]2CNCCO2)c(F)c1)c1cnn(-c2ccc(OC(F)F)cc2)c1 | 0.7 nM | 0.6 nM

Reference: ChEMBL document CHEMBL3638970, “Substituted benzamide derivatives” (2015)
